Test results as given in ChEMBL document CHEMBL5726298, “Heteroaryl-pyrimidinone compounds as PDE2 inhibitors” (2019).
pKi: −log10 of the molar value.

Target: T1, GMP-stimulated 3',5'-cyclic nucleotide phosphodiesterase (Macaca mulatta, UniProt B3VTJ2)
T1 sequence (B3VTJ2 whole entry): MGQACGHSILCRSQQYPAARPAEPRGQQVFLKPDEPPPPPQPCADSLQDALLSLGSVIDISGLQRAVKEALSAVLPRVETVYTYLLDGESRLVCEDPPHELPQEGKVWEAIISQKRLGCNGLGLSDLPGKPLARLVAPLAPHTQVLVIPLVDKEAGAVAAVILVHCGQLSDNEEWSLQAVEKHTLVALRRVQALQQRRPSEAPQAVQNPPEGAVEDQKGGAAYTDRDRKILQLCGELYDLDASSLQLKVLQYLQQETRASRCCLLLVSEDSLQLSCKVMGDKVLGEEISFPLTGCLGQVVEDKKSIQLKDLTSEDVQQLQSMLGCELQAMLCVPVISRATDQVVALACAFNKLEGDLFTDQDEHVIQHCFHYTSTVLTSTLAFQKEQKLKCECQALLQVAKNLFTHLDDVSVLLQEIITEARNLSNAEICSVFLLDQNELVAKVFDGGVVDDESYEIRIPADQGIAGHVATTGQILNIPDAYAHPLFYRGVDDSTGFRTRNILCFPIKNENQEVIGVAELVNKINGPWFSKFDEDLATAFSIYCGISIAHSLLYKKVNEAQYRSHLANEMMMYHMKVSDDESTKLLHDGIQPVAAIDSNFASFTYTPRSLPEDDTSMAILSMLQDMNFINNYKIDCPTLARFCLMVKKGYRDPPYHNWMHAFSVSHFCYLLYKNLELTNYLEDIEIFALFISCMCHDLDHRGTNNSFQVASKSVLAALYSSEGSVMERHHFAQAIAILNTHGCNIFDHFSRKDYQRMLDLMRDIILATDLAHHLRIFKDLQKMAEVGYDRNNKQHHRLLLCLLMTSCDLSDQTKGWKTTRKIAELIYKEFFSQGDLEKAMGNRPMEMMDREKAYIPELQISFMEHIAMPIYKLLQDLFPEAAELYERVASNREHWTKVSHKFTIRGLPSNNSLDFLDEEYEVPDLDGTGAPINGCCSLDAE
Assay: PDE2A3 assay: The activity of the compounds in accordance with the present invention as PDE2 inhibitors may be readily determined using a fluorescence polarization (FP) methodology (Huang, W., et al., J. Biomol Screen, 2002, 7: 215). […] Done in Lab A for rhPDE2A3.

`Cc1nc(-c2csc(C(C)c3ccc(C(F)(F)F)cc3)n2)cc(=O)[nH]1` (stereo unspecified) was tested, and the pKi was 5.91.
